Measured values from patent publication US10597388B2, “Pyridazinone herbicides” (FMC CORPORATION, priority 2014, dated 2020).

Tests used:
Format in all cases: in vivo
[1] = test system: johnsongrass (Sorghum halepense); experiment: Test C greenhouse herbicide test, pre- and postemergence
Excerpt: (§1) Seeds of plant species selected from blackgrass (Alopecurus myosuroides), ryegrass, Italian (Italian ryegrass, Lolium multiflorum), wheat (winter wheat, Triticum aestivum), galium (catchweed bedstraw, Galium aparine), corn (Zea mays), large crabgrass, large (large crabgrass, Digitaria sanguinalis), foxtail, giant (giant foxtail, Setaria faberii), johnsongrass (Sorghum halepense), lambsquarters (Chenopodium album), morningglory (Ipomoea coccinea), nutsedge, yellow (yellow nutsedge, Cyperus esculentus), pigweed (Amaranthus retroflexus), ragweed (common ragweed, Ambrosia elatior), soybean (Glycine max), barnyardgrass (Echinochloa crus-galli), oilseed rape (Brassica napus), waterhemp (common waterhemp, Amaranthus rudis), and velvetleaf (Abutilon theophrasti) were planted into a blend of loam soil and sand and treated preemergence with test chemicals formulated in a non-phytotoxic solvent mixture which included a surfactant.
(§2) At the same time, plants selected from these crop and weed species and also chickweed (common chickweed, Stellaria media), kochia (Kochia scoparia), and oat, wild (wild oat, Avena fatua), were planted in pots containing Redi-Earth® planting medium (Scotts Company, 14111 Scottslawn Road, Marysville, Ohio 43041) comprising spaghnum peat moss, vermiculite, wetting agent and starter nutrients and treated with postemergence applications of test chemicals formulated in the same manner. Plants ranged in height from 2 to 18 cm (1- to 4-leaf stage) for postemergence treatments. Treated plants and controls were maintained in a greenhouse for 13 to 15 d, after which time all species were compared to controls and visually evaluated. Plant response ratings, summarized in Table C, are based on a scale of 0 to 100 where 0 is no effect and 100 is complete control. A dash (-) response means no test result.

[2] = test system: barnyardgrass (Echinochloa crus-galli); experiment: as above
Excerpt: as §1, §2

[3] = test system: pigweed (Amaranthus retroflexus); experiment: as above
Excerpt: as §1, §2

[4] = test system: waterhemp (common waterhemp, Amaranthus rudis); experiment: as above
Excerpt: as §1, §2

[5] = test system: morningglory (Ipomoea coccinea); experiment: as above
Excerpt: as §1, §2

[6] = test system: lambsquarters (Chenopodium album); experiment: as above
Excerpt: as §1, §2

[7] = test system: wheat (winter wheat, Triticum aestivum); experiment: as above
Excerpt: as §1, §2

[8] = test system: soybean (Glycine max); experiment: as above
Excerpt: as §1, §2

[9] = test system: ragweed (common ragweed, Ambrosia elatior); experiment: as above
Excerpt: as §1, §2

[10] = test system: ryegrass, Italian (Italian ryegrass, Lolium multiflorum); experiment: as above
Excerpt: as §1, §2

[11] = test system: foxtail, giant (giant foxtail, Setaria faberii); experiment: as above
Excerpt: as §1, §2

[12] = test system: crabgrass, large (large crabgrass, Digitaria sanguinalis); experiment: as above
Excerpt: as §1, §2

[13] = test system: corn (Zea mays); experiment: as above
Excerpt: as §1, §2

[14] = test system: blackgrass (Alopecurus myosuroides); experiment: as above
Excerpt: as §1, §2

[15] = test system: kochia (Kochia scoparia); experiment: Test C greenhouse herbicide test, postemergence
Outline: (§3)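 Seedlings are raised in pots of peat moss–vermiculite medium with starter nutrients, then receive postemergence test chemical at the 1- to 4-leaf stage. They are kept in the greenhouse 13 to 15 d and scored visually versus controls, 0 meaning no effect and 100 complete control.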

[16] = test system: oat, wild (wild oat, Avena fatua); experiment: Test C greenhouse herbicide test, postemergence
Outline: as §3

[17] = Postemergence, 31 g ai/ha, 0 to 100 scale (0 no effect, 100 complete control)
[18] = Postemergence, 250 g ai/ha, scale 0 to 100, 0 no effect, 100 complete control, 13 to 15 d
[19] = Preemergence, 31 g ai/ha, scale 0 to 100, 0 is no effect, 100 is complete control
[20] = Preemergence, 62 g ai/ha, scale 0 to 100, 0 is no effect, 100 is complete control
[21] = Preemergence, 125 g ai/ha, scale 0 to 100, 0 is no effect, 100 is complete control
[22] = Preemergence, 250 g ai/ha, scale 0 to 100 (0 no effect, 100 complete control)
[23] = postemergence, 62 g ai/ha, scale 0 to 100, 0 no effect, 100 complete control
[24] = Postemergence, 125 g ai/ha, scale 0 to 100, 0 is no effect, 100 is complete control

SMILES: CCC(=O)Oc1c(C)nn(C)c(=O)c1-c1c(C)sc2c(C)cc(C)cc12 [Compound 28]
- Johnsongrass plant response rating [1, 17]: 5
- Plant response rating, Johnsongrass [1, 18]: 30
- Plant response rating, Johnsongrass [1, 19]: 0
- Plant response rating, Johnsongrass [1, 20]: 0
- Plant response rating, Johnsongrass [1, 21]: 5
- Johnsongrass plant response rating [1, 22]: 10
- Johnsongrass plant response rating [1, 23]: 5
- Barnyardgrass plant response rating [2, 17]: 20
- Plant response rating, Barnyardgrass [2, 24]: 35
- Plant response rating, Barnyardgrass [2, 18]: 40
- Plant response rating, Barnyardgrass [2, 19]: 45
- Plant response rating, Barnyardgrass [2, 20]: 75
- Plant response rating, Barnyardgrass [2, 21]: 90
- Barnyardgrass plant response rating [2, 22]: 95
- Barnyardgrass plant response rating [2, 23]: 25
- Pigweed plant response rating [3, 17]: 60
- Plant response rating, Pigweed [3, 24]: 90
- Plant response rating, Pigweed [3, 18]: 90
- Plant response rating, Pigweed [3, 19]: 100
- Plant response rating, Pigweed [3, 20]: 100
- Plant response rating, Pigweed [3, 21]: 100
- Pigweed plant response rating [3, 22]: 100
- Pigweed plant response rating [3, 23]: 85
- Waterhemp plant response rating [4, 17]: 60
- Plant response rating, Waterhemp [4, 24]: 85
- Plant response rating, Waterhemp [4, 18]: 85
- Plant response rating, Waterhemp [4, 20]: 75
- Plant response rating, Waterhemp [4, 21]: 85
- Waterhemp plant response rating [4, 22]: 100
- Waterhemp plant response rating [4, 23]: 75
- Morningglory plant response rating [5, 17]: 95
- Plant response rating, Morningglory [5, 24]: 100
- Plant response rating, Morningglory [5, 18]: 100
- Plant response rating, Morningglory [5, 19]: 80
- Plant response rating, Morningglory [5, 20]: 98
- Plant response rating, Morningglory [5, 21]: 98
- Morningglory plant response rating [5, 22]: 100
- Morningglory plant response rating [5, 23]: 98
- Lambsquarters plant response rating [6, 17]: 85
- Plant response rating, Lambsquarters [6, 24]: 100
- Plant response rating, Lambsquarters [6, 18]: 100
- Plant response rating, Lambsquarters [6, 19]: 65
- Plant response rating, Lambsquarters [6, 20]: 85
- Plant response rating, Lambsquarters [6, 21]: 85
- Lambsquarters plant response rating [6, 22]: 90
- Lambsquarters plant response rating [6, 23]: 98
- Wheat plant response rating [7, 17]: 0
- Plant response rating, Wheat [7, 24]: 0
- Plant response rating, Wheat [7, 18]: 5
- Plant response rating, Wheat [7, 20]: 0
- Plant response rating, Wheat [7, 21]: 0
- Wheat plant response rating [7, 22]: 10
- Wheat plant response rating [7, 23]: 0
- Soybean plant response rating [8, 17]: 0
- Plant response rating, Soybean [8, 24]: 0
- Plant response rating, Soybean [8, 18]: 5
- Plant response rating, Soybean [8, 20]: 25
- Plant response rating, Soybean [8, 21]: 0
- Soybean plant response rating [8, 22]: 50
- Soybean plant response rating [8, 23]: 0
- Ragweed plant response rating [9, 17]: 65
- Plant response rating, Ragweed [9, 24]: 85
- Plant response rating, Ragweed [9, 18]: 90
- Plant response rating, Ragweed [9, 19]: 70
- Plant response rating, Ragweed [9, 20]: 90
- Plant response rating, Ragweed [9, 21]: 95
- Ragweed plant response rating [9, 22]: 90
- Ragweed plant response rating [9, 23]: 75
- Ryegrass, Italian plant response rating [10, 17]: 80
- Plant response rating, Ryegrass, Italian [10, 24]: 90
- Plant response rating, Ryegrass, Italian [10, 18]: 95
- Plant response rating, Ryegrass, Italian [10, 19]: 85
- Plant response rating, Ryegrass, Italian [10, 20]: 90
- Plant response rating, Ryegrass, Italian [10, 21]: 95
- Ryegrass, Italian plant response rating [10, 22]: 95
- Ryegrass, Italian plant response rating [10, 23]: 85
- Foxtail, Giant plant response rating [11, 17]: 60
- Plant response rating, Foxtail, Giant [11, 24]: 85
- Plant response rating, Foxtail, Giant [11, 18]: 95
- Plant response rating, Foxtail, Giant [11, 19]: 85
- Plant response rating, Foxtail, Giant [11, 20]: 100
- Plant response rating, Foxtail, Giant [11, 21]: 100
- Foxtail, Giant plant response rating [11, 22]: 100
- Foxtail, Giant plant response rating [11, 23]: 80
- Crabgrass, Large plant response rating [12, 17]: 25
- Plant response rating, Crabgrass, Large [12, 24]: 40
- Plant response rating, Crabgrass, Large [12, 18]: 45
- Plant response rating, Crabgrass, Large [12, 19]: 25
- Plant response rating, Crabgrass, Large [12, 20]: 60
- Plant response rating, Crabgrass, Large [12, 21]: 80
- Crabgrass, Large plant response rating [12, 22]: 85
- Crabgrass, Large plant response rating [12, 23]: 20
- Corn plant response rating [13, 17]: 5
- Plant response rating, Corn [13, 24]: 5
- Plant response rating, Corn [13, 18]: 15
- Plant response rating, Corn [13, 19]: 0
- Plant response rating, Corn [13, 20]: 0
- Plant response rating, Corn [13, 21]: 30
- Corn plant response rating [13, 22]: 15
- Corn plant response rating [13, 23]: 5
- Blackgrass plant response rating [14, 17]: 50
- Plant response rating, Blackgrass [14, 24]: 80
- Plant response rating, Blackgrass [14, 18]: 90
- Plant response rating, Blackgrass [14, 19]: 85
- Plant response rating, Blackgrass [14, 20]: 90
- Plant response rating, Blackgrass [14, 21]: 90
- Blackgrass plant response rating [14, 22]: 90
- Blackgrass plant response rating [14, 23]: 70
- Kochia plant response rating [15, 17]: 70
- Plant response rating, Kochia [15, 24]: 95
- Plant response rating, Kochia [15, 18]: 100
- Kochia plant response rating [15, 23]: 70
- Oat, Wild plant response rating [16, 17]: 95
- Plant response rating, Oat, Wild [16, 24]: 100
- Plant response rating, Oat, Wild [16, 18]: 100
- Oat, Wild plant response rating [16, 23]: 95
